Assay results: the supplement of paper PMC10307832

Key:
Assay in all cases: relative viability (nuclei count vs DMSO), 5 days (fraction); higher = more cells survive
[1] = compound: COc1cc2nccc(Oc3ccc(NC(=O)C4(C(=O)Nc5ccc(F)cc5)CC4)cc3)c2cc1OC [Cabozantinib] + C[C@]1(O)C[C@@H](c2nc(-c3ccc4ccc(-c5ccccc5)nc4c3)c3c(N)nccn32)C1 [Linsitinib] (partner 1 µM)
Method in brief: (§1)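 Relative viability was taken as the ratio of nuclei in treated wells to nuclei in vehicle wells. Lung cancer cell lines in 1536-well plates received compounds by pin tool one day after seeding, either one drug alone or a fixed anchor-drug dose plus five library-drug doses (not always all listed) in √10 steps. Nuclei were counted on 4× images after 5 days of treatment, and values are medians of duplicate plates.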

Zosuquidar + OSI-027 = compound: O[C@@H](COc1cccc2ncccc12)CN1CCN([C@@H]2c3ccccc3[C@@H]3[C@H](c4ccccc42)C3(F)F)CC1 [Zosuquidar] + COc1cccc2cc(-c3nc([C@H]4CC[C@H](C(=O)O)CC4)n4ncnc(N)c34)[nH]c12 [OSI-027] (partner 0.5 µM)
Method in brief: as §1

Zosuquidar + AZD7762 = compound: O[C@@H](COc1cccc2ncccc12)CN1CCN([C@@H]2c3ccccc3[C@@H]3[C@H](c4ccccc42)C3(F)F)CC1 [Zosuquidar] + NC(=O)Nc1cc(-c2cccc(F)c2)sc1C(=O)N[C@H]1CCCNC1 [AZD7762] (partner 0.2 µM)
Method in brief: as §1

Zosuquidar + Pemetrexed = compound: O[C@@H](COc1cccc2ncccc12)CN1CCN([C@@H]2c3ccccc3[C@@H]3[C@H](c4ccccc42)C3(F)F)CC1 [Zosuquidar] + Nc1nc2[nH]cc(CCc3ccc(C(=O)N[C@@H](CCC(=O)O)C(=O)O)cc3)c2c(=O)[nH]1 [Pemetrexed] (partner 0.2 µM)
Method in brief: as §1

Cell Line	relative viability ([1]; first compound 0.02 µM)	relative viability ([1]; first compound 0.06325 µM)	relative viability ([1]; first compound 0.2 µM)	relative viability ([1]; first compound 0.6325 µM)	relative viability ([1]; first compound 2 µM)	relative viability (Zosuquidar + OSI-027; first compound 0.01 µM)	relative viability (Zosuquidar + OSI-027; first compound 0.03162 µM)	relative viability (Zosuquidar + OSI-027; first compound 0.3162 µM)	relative viability (Zosuquidar + OSI-027; first compound 1 µM)	relative viability (Zosuquidar + AZD7762; first compound 0.01 µM)	relative viability (Zosuquidar + AZD7762; first compound 0.3162 µM)	relative viability (Zosuquidar + AZD7762; first compound 1 µM)	relative viability (Zosuquidar + Pemetrexed; first compound 0.01 µM)	relative viability (Zosuquidar + Pemetrexed; first compound 0.3162 µM)	relative viability (Zosuquidar + Pemetrexed; first compound 1 µM)	relative viability (Zosuquidar + OSI-027; first compound 0.1 µM)	relative viability (Zosuquidar + AZD7762; first compound 0.03162 µM)	relative viability (Zosuquidar + AZD7762; first compound 0.1 µM)	relative viability (Zosuquidar + Pemetrexed; first compound 0.03162 µM)	relative viability (Zosuquidar + Pemetrexed; first compound 0.1 µM)
HCC-78	0.428	0.423	0.194	0.261	0.193	0.346	0.356	0.422	0.294	0.685	0.72	0.524	0.92	0.906	0.827	–	–	–	–	–
NCI-H322M	0.95	1	–	0.96	0.954	0.529	0.67	0.66	0.575	0.586	0.56	0.49	0.623	0.582	0.575	0.485	0.507	0.495	0.537	0.548
HOP-62	1.09	0.974	1.1	1.01	1.02	0.768	0.833	0.865	0.906	0.619	0.802	0.631	0.256	0.308	0.295	0.817	0.771	0.512	0.38	0.341
NCI-H838	1.03	1.04	1.1	0.943	0.821	0.411	0.323	0.38	0.41	0.939	0.948	0.904	0.239	0.251	0.268	0.303	0.997	0.898	0.236	0.254
LK-2	0.724	0.73	0.619	0.633	0.716	0.172	0.216	0.209	0.174	0.496	0.541	0.279	0.281	0.26	0.271	0.21	0.428	0.328	0.306	0.205
BEN	0.906	0.993	0.974	0.795	0.597	0.31	0.297	0.301	0.313	0.738	0.724	0.589	0.75	1.05	0.684	0.288	0.615	0.518	0.738	0.476
NCI-H23	–	0.687	0.561	0.473	0.48	0.644	0.636	0.705	0.641	0.319	0.331	0.224	0.601	0.843	0.657	0.525	–	0.2	–	0.612
NCI-H1944	–	1.18	1.09	1.12	1.07	0.381	0.384	0.479	0.412	0.496	0.62	0.511	0.583	0.678	0.665	0.328	0.565	0.479	0.585	0.604
NCI-H1792	0.669	0.588	0.511	0.483	0.496	0.786	0.601	0.837	0.753	0.539	0.817	1.19	0.746	1.04	0.933	–	0.623	0.5	0.705	0.474
NCI-H2085	0.93	0.868	0.918	0.847	0.875	0.707	0.779	0.84	0.746	0.983	1.03	0.99	0.953	0.956	0.904	0.468	1.04	–	0.697	–
LC-2-ad	0.846	0.795	0.659	0.56	0.461	0.865	0.814	1.09	0.864	0.78	0.842	0.787	0.255	0.31	0.282	0.829	0.855	0.883	0.276	0.296
201T	1.08	1.04	0.993	1.01	0.973	0.777	0.722	0.803	0.741	0.592	0.685	0.731	0.315	0.322	0.334	0.646	0.623	0.67	0.334	0.35
NCI-H1793	1.21	1.01	0.7	0.814	0.65	0.315	0.389	0.287	0.311	0.519	0.516	0.692	0.898	1.01	0.832	–	–	–	–	–
NCI-H2347	0.967	0.961	0.992	0.846	0.81	0.434	0.398	0.481	0.475	0.701	0.808	0.764	0.425	0.432	0.483	0.238	0.811	0.564	0.34	0.413
LXF-289	1.02	0.966	0.971	0.983	0.94	0.744	0.862	0.856	0.915	1.13	1.12	1.14	0.892	0.895	0.908	0.741	1.18	1.07	0.905	0.908
EKVX	0.955	1.11	0.806	0.989	1.09	0.743	0.622	0.707	0.762	0.747	0.752	0.659	0.373	0.435	0.444	0.536	0.77	–	0.392	–
NCI-H650	0.846	1.02	1.05	0.971	0.774	0.514	0.477	0.553	0.576	0.944	1.31	0.898	0.764	1.18	0.921	0.433	0.801	0.897	0.757	0.834
